Measured values: article PMC9749936, “Synthesis and structure–activity relationship studies of N-terminal analogues of the lipopeptide antibiotics brevicidine and laterocidine” (RSC Medicinal Chemistry, 2022)
Bridge positions count the residues as written; N and C are the ends. Square brackets hold non-standard residues; d marks the D form. Peptide text beside a SMILES is read from it. * marks the point of attachment. Palmitoyl = CCCCCCCCCCCCCCCC(=O)*; Myristoyl = CCCCCCCCCCCCCC(=O)*; Lauroyl = CCCCCCCCCCCC(=O)*; Decanoyl = CCCCCCCCCC(=O)*; dOrn = NCCC[C@@H](N)C(=O)O; Orn = NCCC[C@H](N)C(=O)O; Butyryl = CCCC(=O)*

Tests used:
E. coli ATCC 25922 = type: cell-based, Escherichia coli; details: ATCC 25922, 18 h
Outline: (§1)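 Broth microdilution MIC per CLSI guidelines in MHB, with compound from DMSO stocks serially diluted in polypropylene plates.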

Sheep red blood cells = type: cell-based; details: red cells of sheep, 1 h, 64 μg mL^−1
S. aureus USA300 = type: cell-based, Staphylococcus aureus; details: USA300, 18 h
Outline: as §1

A. baumannii ATCC 17961 = type: cell-based, Acinetobacter baumannii; details: ATCC 17961, 18 h
Outline: as §1

P. aeruginosa PAO1 = type: cell-based, Pseudomonas aeruginosa; details: PAO1, 18 h
Outline: as §1

E. coli ATCC 25922 MCR-1 = type: cell-based, Escherichia coli; details: colistin-resistant strain carrying mcr-1; CLSI broth microdilution in MHB, 18 h at 37 °C, visual inspection; three technical replicates
K. pneumoniae ATCC 13883 = type: cell-based, Klebsiella pneumoniae; details: ATCC 13883, 18 h
Outline: as §1

SMILES	Antimicrobial activity (MIC) E. coli ATCC 25922 (E. coli ATCC 25922)	% Hemolytic activity, sheep red blood cells (Sheep red blood cells)	Antimicrobial activity (MIC) S. aureus USA300 (S. aureus USA300)	Antimicrobial activity (MIC) A. baumannii ATCC 17961 (A. baumannii ATCC 17961)	Antimicrobial activity (MIC) P. aeruginosa PAO1 (P. aeruginosa PAO1)	Antimicrobial activity (MIC) E. coli ATCC 25922 MCR-1 (E. coli ATCC 25922 MCR-1)	Antimicrobial activity (MIC) K. pneumoniae ATCC 13883 (K. pneumoniae ATCC 13883)
CCCCCCCCCCCCCCCC(=O)N[C@H](CC(N)=O)C(=O)N[C@H](Cc1ccc(O)cc1)C(=O)N[C@H](Cc1c[nH]c2ccccc12)C(=O)N[C@H](CCCN)C(=O)N[C@@H](CCCN)C(=O)NCC(=O)N[C@H](CCCN)C(=O)N[C@@H](Cc1c[nH]c2ccccc12)C(=O)N[C@@H]1C(=O)N[C@@H]([C@@H](C)CC)C(=O)NCC(=O)N[C@@H](CO)C(=O)O[C@@H]1C [Compound 17] (Palmitoyl-[dN][dY][dW][dOrn][Orn]G[dOrn]WTIGS; ester 9-C)	>32 µg/mL	13.3%	>32 µg/mL	32 µg/mL	>32 µg/mL	>32 µg/mL	>32 µg/mL
CC[C@H](C)[C@@H]1NC(=O)[C@@H](NC(=O)[C@H](Cc2c[nH]c3ccccc23)NC(=O)[C@@H](CCCN)NC(=O)CNC(=O)[C@H](CCCN)NC(=O)[C@@H](CCCN)NC(=O)[C@@H](Cc2c[nH]c3ccccc23)NC(=O)[C@@H](Cc2ccc(O)cc2)NC(=O)[C@H](N)CC(N)=O)[C@@H](C)OC(=O)[C@H](CO)NC(=O)CNC1=O [Compound 9]	>32 µg/mL	0.2%	>32 µg/mL	>32 µg/mL	16 µg/mL	>32 µg/mL	>32 µg/mL
CCCC(=O)N[C@H](CC(N)=O)C(=O)N[C@H](Cc1ccc(O)cc1)C(=O)N[C@H](Cc1c[nH]c2ccccc12)C(=O)N[C@H](CCCN)C(=O)N[C@@H](CCCN)C(=O)NCC(=O)N[C@H](CCCN)C(=O)N[C@@H](Cc1c[nH]c2ccccc12)C(=O)N[C@@H]1C(=O)N[C@@H]([C@@H](C)CC)C(=O)NCC(=O)N[C@@H](CO)C(=O)O[C@@H]1C [Compound 11] (Butyryl-[dN][dY][dW][dOrn][Orn]G[dOrn]WTIGS; ester 9-C)	32 µg/mL	0.1%	>32 µg/mL	32 µg/mL	16 µg/mL	32 µg/mL	8 µg/mL
CCCCCCCCCCCCCC(=O)N[C@H](CC(N)=O)C(=O)N[C@H](Cc1ccc(O)cc1)C(=O)N[C@H](Cc1c[nH]c2ccccc12)C(=O)N[C@H](CCCN)C(=O)N[C@@H](CCCN)C(=O)NCC(=O)N[C@H](CCCN)C(=O)N[C@@H](Cc1c[nH]c2ccccc12)C(=O)N[C@@H]1C(=O)N[C@@H]([C@@H](C)CC)C(=O)NCC(=O)N[C@@H](CO)C(=O)O[C@@H]1C [Compound 16] (Myristoyl-[dN][dY][dW][dOrn][Orn]G[dOrn]WTIGS; ester 9-C)	16 µg/mL	18.0%	>32 µg/mL	4 µg/mL	32 µg/mL	16 µg/mL	32 µg/mL
CCCCCCCCCC(=O)N[C@H](CO)C(=O)N[C@H](Cc1ccc(O)cc1)C(=O)N[C@H](Cc1c[nH]c2ccccc12)C(=O)N[C@H](CCCN)C(=O)N[C@@H](CCCN)C(=O)NCC(=O)N[C@H](CCCN)C(=O)N[C@@H](Cc1c[nH]c2ccccc12)C(=O)N[C@@H]1C(=O)N[C@@H]([C@@H](C)CC)C(=O)N[C@@H](CC(N)=O)C(=O)NCC(=O)NCC(=O)O[C@@H]1C [Compound 23] (Decanoyl-[dS][dY][dW][dOrn][Orn]G[dOrn]WTINGG; ester 9-C)	2 µg/mL	2.1%	>32 µg/mL	2 µg/mL	2 µg/mL	2 µg/mL	2 to 4 µg/mL
CCCCCCCCCCCC(=O)N[C@H](CC(N)=O)C(=O)N[C@H](Cc1ccc(O)cc1)C(=O)N[C@H](Cc1c[nH]c2ccccc12)C(=O)N[C@H](CCCN)C(=O)N[C@@H](CCCN)C(=O)NCC(=O)N[C@H](CCCN)C(=O)N[C@@H](Cc1c[nH]c2ccccc12)C(=O)N[C@@H]1C(=O)N[C@@H]([C@@H](C)CC)C(=O)NCC(=O)N[C@@H](CO)C(=O)O[C@@H]1C [Compound 15] (Lauroyl-[dN][dY][dW][dOrn][Orn]G[dOrn]WTIGS; ester 9-C)	8 µg/mL	13.3%	32 µg/mL	4 µg/mL	16 µg/mL	8 µg/mL	8 µg/mL
CCCCCCCCCCCC(=O)N[C@H](CO)C(=O)N[C@H](Cc1ccc(O)cc1)C(=O)N[C@H](Cc1c[nH]c2ccccc12)C(=O)N[C@H](CCCN)C(=O)N[C@@H](CCCN)C(=O)NCC(=O)N[C@H](CCCN)C(=O)N[C@@H](Cc1c[nH]c2ccccc12)C(=O)N[C@@H]1C(=O)N[C@@H]([C@@H](C)CC)C(=O)N[C@@H](CC(N)=O)C(=O)NCC(=O)NCC(=O)O[C@@H]1C [Compound 24] (Lauroyl-[dS][dY][dW][dOrn][Orn]G[dOrn]WTINGG; ester 9-C)	4 µg/mL	21.5%	32 µg/mL	2 µg/mL	8 µg/mL	4 µg/mL	8 µg/mL
